Values quoted from earlier work, collected in patent US10995060B2, “Amorphous Trisodium Sacubitril Valsartan and process for its preparation” (priority 2016, dated 2021).
Counter-ions that a name gives are not always drawn. Like-named read-outs stand apart in the source and are kept apart here.

Experiments:
[1] = for Crystalline state / polymorph stability after exposure: 80° C at 0% RH and 75% RH for 3 days; for Result after loading of the sample at 80° C./0% RH / Result after loading of the sample at 80° C./75% RH: solid form by X-ray powder analysis, 3 days
[2] = crystal powder of Example 11 of WO 200206253

| Compound | Crystalline state / polymorph stability after exposure [1] | Result after loading of the sample at 80° C./0% RH [1] | Result after loading of the sample at 80° C./75% RH [1] | Result after loading of the sample at 80° C./75% RH ([1]; listed as sodium salt of Sacubitril) | Hygroscopicity [2] |
| --- | --- | --- | --- | --- | --- |
| CCOC(=O)[C@H](C)C[C@@H](Cc1ccc(-c2ccccc2)cc1)NC(=O)CCC(=O)O [calcium salt of sacubitril] | did not change | Crystalline sample(form I)I | Crystalline sample(form I)I |  |  |
| CCOC(=O)[C@H](C)C[C@@H](Cc1ccc(-c2ccccc2)cc1)NC(=O)CCC(=O)[O-].[Na+] [sodium salt of sacubitril] | high rate of polymorph instability | Semicrystalline phase | Amorphous sample | completely amorphous |  |
| Hydrate of valsartan disodium salt (2.4 ě 1.0 mole H2O) |  |  |  |  | slightly hygroscopic |
